From ChEMBL document CHEMBL1154226, “Synthesis and evaluation of inhibitors of cytochrome P450 3A (CYP3A) for pharmacokinetic enhancement of drugs” (Bioorg Med Chem Lett, 2009)

Key:
Liver microsomes = assay: Intrinsic clearance in human liver microsomes; assay type: ADME, Microsome
Canis familiaris = species: Canis familiaris; conditions: dog, in vivo, po, 5 mg/kg
in vivo = conditions: Beagle, dog, po, 5 mg/kg
Cytochrome P450 3A4 = Cytochrome P450 3A4 (Homo sapiens, UniProt P08684); assay: Inhibition of human recombinant CYP3A4-mediated oxidation of 7-benzyloxyquinoline
Chain of Cytochrome P450 3A4 (P08684 whole entry): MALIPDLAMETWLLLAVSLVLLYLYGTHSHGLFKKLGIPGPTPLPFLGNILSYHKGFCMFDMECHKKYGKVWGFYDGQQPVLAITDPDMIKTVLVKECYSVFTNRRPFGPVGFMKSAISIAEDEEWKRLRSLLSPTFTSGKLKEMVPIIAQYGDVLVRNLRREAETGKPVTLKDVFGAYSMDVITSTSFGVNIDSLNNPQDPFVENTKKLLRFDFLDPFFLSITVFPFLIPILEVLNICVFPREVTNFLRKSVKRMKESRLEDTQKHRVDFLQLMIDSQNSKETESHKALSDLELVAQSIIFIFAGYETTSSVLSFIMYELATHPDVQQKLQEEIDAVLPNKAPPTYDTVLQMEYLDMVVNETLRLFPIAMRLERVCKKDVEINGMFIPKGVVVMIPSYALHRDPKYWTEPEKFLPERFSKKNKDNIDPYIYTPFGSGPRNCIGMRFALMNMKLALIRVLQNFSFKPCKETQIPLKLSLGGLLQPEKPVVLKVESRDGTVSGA

SMILES	IC50 (Liver microsomes) [nM]	AUC (Canis familiaris) [µg/mL]	Cmax (in vivo) [ng/mL]	IC50 (Cytochrome P450 3A4) [nM]
CCN(C[C@H](Cc1ccccc1)NC(=O)OCc1cnc[nH]1)C[C@H](Cc1ccccc1)NC(=O)OCc1cnc[nH]1	–	–	–	348
CCN(C[C@H](CC(C)C)NC(=O)OCc1cncs1)C[C@H](CC(C)C)NC(=O)OCc1cncs1	–	–	–	136
CCN(C[C@H](Cc1ccccc1)NC(=O)OCc1cncs1)C[C@H](Cc1ccccc1)NC(=O)OCc1cncs1	–	1.38	610	–
CCN(CC(CC1CCCCC1)NC(=O)OCc1cncs1)CC(CC1CCCCC1)NC(=O)OCc1cncs1 (stereo not given)	–	–	–	66
CCN(C[C@H](Cc1ccccc1)NC(=O)OCc1cnco1)C[C@H](Cc1ccccc1)NC(=O)OCc1cnco1	–	–	–	274

Results, then the molecule that gave them:

IC50 (Liver microsomes) [nM]	AUC (Canis familiaris) [µg/mL]	Cmax (in vivo) [ng/mL]	IC50 (Cytochrome P450 3A4) [nM]	SMILES
54	0.06	30	–	O=C(NC(Cc1ccccc1)CN(CC(Cc1ccccc1)NC(=O)OCc1cncs1)CC(Cc1ccccc1)NC(=O)OCc1cncs1)OCc1cncs1 (stereo not given)
–	–	–	741	CCN(C[C@H](Cc1ccccc1)NC(=O)OCc1cccs1)C[C@H](Cc1ccccc1)NC(=O)OCc1cccs1
–	–	–	88	CCN(CC(CC(=O)OC)NC(=O)OCc1cncs1)CC(CC(=O)OC)NC(=O)OCc1cncs1 (stereo not given)
–	–	–	> 3000	CCN(CCNC(=O)OCc1cncs1)CCNC(=O)OCc1cncs1
40	2.19	1320	–	CC(C)c1nc(CN(C)C(=O)N[C@H](C(=O)N[C@@H](Cc2ccccc2)C[C@H](O)[C@H](Cc2ccccc2)NC(=O)OCc2cncs2)C(C)C)cs1 [RITONAVIR]
